Source: US12692269B2, “Therapeutic compounds” (Genentech, Inc., priority 2019, dated 2026)

Tests used:
Type in all cases: binding
TEAD1 YAP50-100 = TEAD1 YAP50-100 (Homo sapiens, UniProt P28347); assay: TEAD1-YAP HTRF (TR-FRET) protein-protein interaction assay; conditions: TEAD1, YAP peptide 50-100, HTRF; for EC50: read-out: TEAD1 YAP50-100 HTRF combined: EC50
Method in brief: (§1)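 Compounds were first allowed 30 min to bind Eu-antibody-tagged His-TEAD (YAP-binding domain, aa 217-447). Biotinylated YAP 50-100 or TAZ 13-57 peptide complexed with streptavidin-XL665 was then added for 60 min at room temperature, and loss of TR-FRET signal gave IC50 or EC50 values.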

[1] = target: TEAD1 TAZ (amino acids 13-57) (Homo sapiens, UniProt P28347); assay: TEAD1-TAZ HTRF (TR-FRET) protein-protein interaction assay; conditions: for TEAD1 TAZ HTRF combined: Max % Inhibition: TEAD1, TAZ peptide; for EC50: TEAD1-TAZ HTRF, TR-FRET 665 nm/615 nm, read-out: TEAD1 TAZ HTRF combined: EC50
TEAD1 TAZ (amino acids 13-57), sequence (P28347 167-426 limits assumed): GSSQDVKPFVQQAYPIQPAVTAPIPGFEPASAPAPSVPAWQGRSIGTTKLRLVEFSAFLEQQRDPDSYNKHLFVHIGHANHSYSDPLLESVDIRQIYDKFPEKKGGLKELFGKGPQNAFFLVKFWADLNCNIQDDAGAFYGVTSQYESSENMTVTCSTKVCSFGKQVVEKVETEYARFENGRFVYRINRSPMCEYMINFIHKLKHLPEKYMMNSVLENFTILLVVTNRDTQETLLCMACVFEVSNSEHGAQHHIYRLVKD
Method in brief: as §1

[2] = target: TEAD3 TAZ (amino acids 13-57) (Homo sapiens, UniProt Q99594); assay: TEAD3-TAZ HTRF (TR-FRET) protein-protein interaction assay; conditions: for TEAD3 TAZ HTRF combined: Max % Inhibition: TEAD3, TAZ peptide; for EC50: TEAD3-TAZ HTRF, TR-FRET 665 nm/615 nm, read-out: TEAD3 TAZ HTRF combined: EC50
TEAD3 TAZ (amino acids 13-57), sequence (Q99594 173-435 limits assumed): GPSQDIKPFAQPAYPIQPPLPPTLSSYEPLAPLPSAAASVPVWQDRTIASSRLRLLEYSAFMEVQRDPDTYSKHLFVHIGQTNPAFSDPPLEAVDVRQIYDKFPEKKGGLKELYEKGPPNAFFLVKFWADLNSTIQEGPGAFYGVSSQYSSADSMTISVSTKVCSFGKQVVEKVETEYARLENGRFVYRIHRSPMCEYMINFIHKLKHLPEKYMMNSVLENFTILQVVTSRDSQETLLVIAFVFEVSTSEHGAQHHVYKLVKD
Method in brief: as §1

TEAD2 YAP50-100 = TEAD2 YAP50-100 (Homo sapiens, UniProt Q15562); assay: TEAD2-YAP HTRF (TR-FRET) protein-protein interaction assay; conditions: TEAD2, YAP peptide 50-100, HTRF; for EC50: read-out: TEAD2 YAP50-100 HTRF combined: EC50
TEAD2 YAP50-100, sequence (Q15562 217-447): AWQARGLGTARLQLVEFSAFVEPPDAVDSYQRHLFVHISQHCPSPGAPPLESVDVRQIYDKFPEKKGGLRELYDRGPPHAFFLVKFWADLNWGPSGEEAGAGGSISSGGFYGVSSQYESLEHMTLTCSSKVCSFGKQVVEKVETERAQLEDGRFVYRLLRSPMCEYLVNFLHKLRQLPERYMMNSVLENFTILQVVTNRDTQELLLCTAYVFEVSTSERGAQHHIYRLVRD
Method in brief: as §1

[3] = target: TEAD4 TAZ (amino acids 13-57) (Homo sapiens, UniProt Q15561); assay: TEAD4-TAZ HTRF (TR-FRET) protein-protein interaction assay; conditions: for TEAD4 TAZ HTRF combined: Max % Inhibition: TEAD4, TAZ peptide; for EC50: TEAD4-TAZ HTRF, TR-FRET 665 nm/615 nm, read-out: TEAD4 TAZ HTRF combined: EC50
TEAD4 TAZ (amino acids 13-57), sequence (Q15561 217-434 limits assumed): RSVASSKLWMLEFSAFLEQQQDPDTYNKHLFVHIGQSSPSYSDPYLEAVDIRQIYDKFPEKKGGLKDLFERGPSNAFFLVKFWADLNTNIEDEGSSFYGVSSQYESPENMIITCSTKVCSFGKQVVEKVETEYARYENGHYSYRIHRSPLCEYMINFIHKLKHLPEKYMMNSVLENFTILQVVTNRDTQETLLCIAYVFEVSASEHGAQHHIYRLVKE
Method in brief: as §1

[4] = target: TEAD2 TAZ (amino acids 13-57) (Homo sapiens, UniProt Q15562); assay: TEAD2-TAZ HTRF (TR-FRET) protein-protein interaction assay; conditions: for TEAD2 TAZ HTRF combined: Max % Inhibition: TEAD2, TAZ peptide; for EC50: TEAD2-TAZ HTRF, TR-FRET 665 nm/615 nm, read-out: TEAD2 TAZ HTRF combined: EC50
TEAD2 TAZ (amino acids 13-57), sequence (Q15562 217-447): as the sequence (Q15562 217-447) above
Method in brief: as §1

TEAD4 YAP50-100 = TEAD4 YAP50-100 (Homo sapiens, UniProt Q15561); assay: TEAD4-YAP HTRF (TR-FRET) protein-protein interaction assay; conditions: TEAD4, YAP peptide 50-100, HTRF; for EC50: read-out: TEAD4 YAP50-100 HTRF combined: EC50
TEAD4 YAP50-100, sequence (Q15561 217-434 limits assumed): as the sequence (Q15561 217-434 limits assumed) above
Method in brief: as §1

TEAD3 YAP50-100 = TEAD3 YAP50-100 (Homo sapiens, UniProt Q99594); assay: TEAD3-YAP HTRF (TR-FRET) protein-protein interaction assay; conditions: TEAD3, YAP peptide 50-100, HTRF; for EC50: read-out: TEAD3 YAP50-100 HTRF combined: EC50
TEAD3 YAP50-100, sequence (Q99594 173-435 limits assumed): as the sequence (Q99594 173-435 limits assumed) above
Method in brief: as §1

TEAD1 YAP50-100, sequence (P28347 167-426 limits assumed): as the sequence (P28347 167-426 limits assumed) above

TEAD1 YAP50-100 HTRF combined: Max % Inhibition (TEAD1 YAP50-100)	EC50 (TEAD1 YAP50-100)	TEAD1 TAZ HTRF combined: Max % Inhibition [1]	EC50 [1]	TEAD3 TAZ HTRF combined: Max % Inhibition [2]	EC50 [2]	TEAD2 YAP50-100 HTRF combined: Max % Inhibition (TEAD2 YAP50-100)	EC50 (TEAD2 YAP50-100)	TEAD4 TAZ HTRF combined: Max % Inhibition [3]	EC50 [3]	TEAD2 TAZ HTRF combined: Max % Inhibition [4]	EC50 [4]	TEAD4 YAP50-100 HTRF combined: Max % Inhibition (TEAD4 YAP50-100)	EC50 (TEAD4 YAP50-100)	TEAD3 YAP50-100 HTRF combined: Max % Inhibition (TEAD3 YAP50-100)	EC50 (TEAD3 YAP50-100)	Structure (SMILES)
74.0%	80 nM	66.5%	100 nM	56.5%	180 nM	65.0%	20 nM	40.0%	130 nM	60.0%	20 nM	50.0%	210 nM	71.5%	180 nM	COc1nccnc1-c1nn2c(=O)cc(-c3ccc(C4CCCCC4)cc3)[nH]c2c1C(=O)N1CC(CF)C1 [Compound 13, 5-(4-Cyclohexylphenyl)-3-(3-(fluoromethyl)azetidine-1-carbonyl)-2-(3-methoxypyrazin-2-yl)pyrazolo[1,5-a]pyrimidin-7(4H)-one]
73.0%	30 nM	74.0%	60 nM	52.5%	80 nM	62.5%	10 nM	53.5%	50 nM	67.5%	10 nM	50.0%	60 nM	61.0%	90 nM	COc1ccnc(-c2nn3c(=O)cc(-c4ccc(C5CCCCC5)cc4)[nH]c3c2C(=O)N2CC(CF)C2)n1 [Compound 14, 5-(4-Cyclohexylphenyl)-3-(3-(fluoromethyl)azetidine-1-carbonyl)-2-(4-methoxypyrimidin-2-yl)pyrazolo[1,5-a]pyrimidin-7(4H)-one]
74.0%	30 nM	64.0%	40 nM	55.8%	70 nM	64.8%	10 nM	49.0%	20 nM	62.0%	10 nM	50.5%	30 nM	64.0%	70 nM	O=C(c1c(-c2ncccn2)nn2c(=O)cc(-c3ccc(C4CCCCC4)cc3)[nH]c12)N1CC(CF)C1 [Compound 15, 5-(4-Cyclohexylphenyl)-3-(3-(fluoromethyl)azetidine-1-carbonyl)-2-(pyrimidin-2-yl)pyrazolo[1,5-a]pyrimidin-7(4H)-one]
70.0%	60 nM	59.5%	50 nM	44.5%	80 nM	57.5%	10 nM	38.0%	20 nM	53.5%	10 nM	40.5%	20 nM	55.0%	80 nM	O=C(c1c(-c2ccccn2)nn2c(=O)cc(-c3ccc(C4CCCCC4)cc3)[nH]c12)N1CC(CF)C1 [Compound 16, 5-(4-Cyclohexylphenyl)-3-(3-(fluoromethyl)azetidine-1-carbonyl)-2-(pyridin-2-yl)pyrazolo[1,5-a]pyrimidin-7(4H)-one]
69.0%	30 nM	60.6%	40 nM	53.9%	60 nM	61.6%	10 nM	34.9%	30 nM	60.9%	10 nM	42.0%	40 nM	63.3%	60 nM	O=C(c1c(-c2cnccn2)nn2c(=O)cc(-c3ccc(C4CCCCC4)cc3)[nH]c12)N1CC(CF)C1 [Compound 17, 5-(4-Cyclohexylphenyl)-3-(3-(fluoromethyl)azetidine-1-carbonyl)-2-(pyrazin-2-yl)pyrazolo[1,5-a]pyrimidin-7(4H)-one]
73.0%	50 nM	67.0%	60 nM	43.0%	90 nM	58.5%	10 nM	49.0%	20 nM	55.5%	10 nM	47.0%	20 nM	54.5%	90 nM	Cc1ccnc(-c2nn3c(=O)cc(-c4ccc(C5CCCCC5)cc4)[nH]c3c2C(=O)N2CC(CF)C2)c1 [Compound 18, 5-(4-Cyclohexylphenyl)-3-(3-(fluoromethyl)azetidine-1-carbonyl)-2-(4-methylpvridin-2-yl)pyrazolo[1,5-a]pyrimidin-7(4H)-one]
69.0%	40 nM	59.5%	70 nM	53.0%	60 nM	67.5%	10 nM	38.5%	50 nM	63.5%	10 nM	46.0%	60 nM	60.0%	60 nM	O=C(c1c(-c2ncco2)nn2c(=O)cc(-c3ccc(C4CCCCC4)cc3)[nH]c12)N1CC(CF)C1 [Compound 19, 5-(4-Cyclohexylphenyl)-3-(3-(fluoromethyl)azetidine-1-carbonyl)-2-(oxazol-2-yl)pyrazolo[1,5-a]pyrimidin-7(4H)-one]
72.0%	50 nM	63.0%	50 nM	56.5%	70 nM	53.5%	20 nM	34.5%	940 nM	50.5%	20 nM	37.0%	820 nM	65.5%	50 nM	Cc1nccnc1-c1nn2c(=O)cc(-c3ccc(C4CCCCC4)cc3)[nH]c2c1C(=O)N(C)C [Compound 20, 5-(4-Cyclohexylphenyl)-N,N-dimethyl-2-(3-methylpyrazin-2-yl)-7-oxo-4,7-dihydropyrazolo[1,5-a]pyrimidine-3-carboxamide]
74.0%	40 nM	71.5%	40 nM	69.5%	90 nM	62.5%	10 nM	51.0%	30 nM	61.5%	10 nM	49.5%	30 nM	69.5%	80 nM	Cc1nccnc1-c1nn2c(=O)cc(-c3ccc(C4CCCCC4)c(F)c3)[nH]c2c1C(=O)N1CC(CF)C1 [Compound 21, 5-(4-cyclohexyl-3-fluorophenyl)-3-(3-(fluoromethyl)azetidine-1-carbonyl)-2-(3-methylpyrazin-2-yl)pyrazolo[1,5-a]pyrimidin-7(4H)-one]
